Data from US10487083B2, “Small molecule inhibitors of the JAK family of kinases” (Janssen Pharmaceutica NV, priority 2016, dated 2019).

Key:
[1] = In vivo intracolonic (i.c.) dosing, plasma and colon concentrations (Protocol 3); design: species or system C57BL/6 mice; key to Plasma Concentration After i.c. Dosing, Mean: ^: Mean was not calculated as the values for all three mice were below the lower limit of quantitation; conditions: for Plasma Concentration After i.c. Dosing, Mean: 5 mg/kg intracolonic, female C57BL/6 mice; for systemic exposure after i.c. dosing: mice
Excerpt: Plasma and colon concentration results were obtained by following Protocol 1 using venipuncture of dorsal metatarsal vein bleed for Compounds (B), (C), and Examples 6 and 11. Plasma and colon concentration results were obtained by following Protocol 2 using retro-orbital bleed for Compounds (A), and Examples 1, and 3-5 and Protocol 2 using venipuncture of the dorsal metatarsal vein for Examples 2, 7-10, and 12. Plasma and colon concentration results were obtained by following Protocol 3 for Examples 1, 3 and 4. These protocols are described below under the heading In vivo Studies.
Intracolonic (IC) dose group: Following anesthesia with isoflurane by inhalation, three non-fasted female C57BL/6 mice were administered the compound intracolonically through a small incision in the abdominal wall using a syringe and needle at a dose of 5 mg/kg as a solution in 20% HPβCD at a dose volume of 1 mL/kg. Blood samples were collected at 0.5, 2, and 4 h post dose via retro-orbital bleed. Blood samples were collected into tubes containing anticoagulant (Heparin-Na) and placed on wet ice. The plasma fraction was separated by centrifugation and frozen at −20° C. for up to 4 h and −80° C. after 4 h unless analyzed shortly after sample collection. Colon samples were collected at 4 h post dose. From 2 cm below the cecum, a 4-cm sample of the colon was dissected, cut open on the longitudinal axis, and the solid contents removed by flushing with 2 mL of saline. The colon was further washed by putting it in 5 mL of saline and shaken for 5 seconds. The colon sample was then patted dry, weighed, and homogenized as 1 part tissue (g) to 4 parts HPLC grade water (mL). Concentrations of the compound in plasma and colon homogenate were determined using a qualified liquid chromatography-triple quadrupole mass spectrometry (LC-MS/MS) method. This protocol was used to evaluate IC dosing of the following test compounds: Examples 1, 3, and 4.

[2] = Physical stability of crystalline embodiments of compound Ex. 1 (HT-XRPD/HR-XRPD after exposure); assay type: physicochemical; conditions: for physical stability in climate chamber: four days, HR-XRPD; for physical stability after exposure to AAC: AAC 40° C./70% RH, two days
Protocol: Long term slurry experiments were performed by suspending compound embodiment 1s in twenty neat solvents and stirred at room temperature for two weeks and at 50° C. for one week. Upon completion of the equilibration time, the residual solids were separated from the mother liquors. The solids were dried under ambient conditions and dried under vacuum (5 mBar) before being analyzed by HT-XRPD. Subsequently, the solids were exposed to accelerated aging conditions (40° C./70% relative humidity) for two days and again analyzed by HT-XRPD.
Embodiment 1s converted to hydrated embodiment 10 when it was exposed to 100% RH at 25° C. […] This behavior is attributable to an unequally strong binding of all the hydration/solvation molecules. In this case, embodiment 10 would have a less strongly bound second water molecule that would be lost under ambient conditions. More precisely, the physical stability of embodiment 1s was investigated in climate chambers by exposing a 20 mg sample of such embodiment to 40° C. and 70% relative humidity for four days, and another 20 mg sample of the same embodiment was exposed also for four days to 25° C. and 100% relative humidity. After four days, the various solid samples were analyzed by HR-XRPD, the crystal cell parameters were determined and the diffractograms were indexed. From bottom to top, the first diffractogram in FIG. 6 corresponds to embodiment 1s as starting material, and the second corresponds to the same form after a 4-day exposure to 40° C. and 70% relative humidity, noted as “1s 70 RH” in the same figure. […] Indexing for such form was not possible due to the small amount in which it was present. The third diffractogram corresponds to embodiment 1s after a 4-day exposure to 25° C. and 100% relative humidity, noted as “10” in the same figure. […] Upon dehydration, both embodiments is and 10 re-crystallized to the anhydrous form with a melting point of 148° C.

[3] = MDCK-MDR1 permeability assay; assay type: in vitro ADME; conditions: MDCK-MDR1, pH 7.4; @ 5 μM, with P-gp inhibitor elacridar (2 μM); read-out: MDCK-MDR1 P^eapp(A-B)
Protocol: Permeability measurements were conducted according to the Cyprotex protocol using the MDCK-MDR1 cell line obtained from the NIH (Rockville, Md., USA). […] The cells in this assay form a cohesive sheet of a single cell layer filing the surface area of the culture dish, also known as a confluent monolayer, and on day four the test compound was added to the apical side of the membrane and the transport of the compound across the monolayer was monitored over a time period of 60 min.
Test compounds were dissolved in DMSO at a concentration of 10 mM. The dosing solutions were prepared by diluting test compound with assay buffer (Hanks Balanced Salt Solution), pH 7.4, at a final concentration of 5 μM. For assessment of apical to basolateral (“A-B”) permeability, buffer was removed from the apical compartment and replaced with test compound dosing solution with or without the permeability glycoprotein (“PgP”, “P-gP”, “Pgp” or “P-gp”) inhibitor elacridar (2 μM). For assessment of basolateral to apical (“B-A”) permeability, buffer was removed from the companion plate and replaced with test compound dosing solution. […] The permeability coefficient (Papp) for each compound was calculated from the following equation: Papp=(dQ/dt)/(C0×S), where dQ/dt is the rate of permeation of the drug across the cells, C0 is the donor compartment concentration at time zero, and S is the area of the cell monolayer. […]

[4] = In vivo oral (p.o.) dosing, plasma and colon concentrations (Protocols 1 and 2); conditions: 25 mg/kg p.o., female C57BL/6 mice
Protocol: These protocols are described below under the heading In vivo Studies.
Three non-fasted female C57BL/6 mice were orally administered test compound at a dose of 25 mg/kg p.o. as a solution in 20% hydroxypropyl-beta-cyclodextrin (HPβCD) at a dose volume of 5 mL/kg. Blood samples were collected at 0.5, 2, and 4 h post dose via retro-orbital bleed or venipuncture of the dorsal metatarsal vein. Blood samples were collected into tubes containing anticoagulant (Heparin-Na) and placed on wet ice. The plasma fraction was separated by centrifugation and frozen at −20° C. for up to 4 h and −80° C. after 4 h unless analyzed shortly after sample collection. Colon samples were collected at 4 h post dose. […] Concentrations of the compound in plasma and colon homogenate were determined using a qualified liquid chromatography-triple quadrupole mass spectrometry (LC-MS/MS) method.
Three non-fasted female C57BL/6 mice were orally administered test compound at a dose of 25 mg/kg p.o. as a solution in 20% HPβCD at a dose volume of 5 mL/kg. […] The plasma fraction was separated by centrifugation and frozen at −20° C. for up to 4 h and −80° C. after 4 h unless analyzed shortly after sample collection. […] Concentrations of the compound in plasma and colon homogenate were determined using a qualified liquid chromatography-triple quadrupole mass spectrometry (LC-MS/MS) method.

## N#CCCNC(=O)Cc1nc2cnc3[nH]ccc3c2n1[C@H]1CC[C@H](CC#N)CC1 [Ex. 4, N-(2-Cyanoethyl)-2-(1-((1r,4r)-4-(cyanomethyl)cyclohexyl)-1,6-dihydroimidazo[4,5-d]pyrrolo[2,3-b]pyridin-2-yl)acetamide]
[1]; Time = 4 h
  Plasma Concentration After i.c. Dosing, Mean: ^
[1]
  systemic exposure after i.c. dosing: low systemic exposures

## CC(C)(O)CNC(=O)Cc1nc2cnc3[nH]ccc3c2n1[C@H]1CC[C@H](CC#N)CC1 [Embodiment 4]
[2]
  physical stability under ambient conditions: did not appear to be physically stable

## CC(C)(O)CNC(=O)Cc1nc2cnc3[nH]ccc3c2n1[C@H]1CC[C@H](CC#N)CC1 [embodiment 1s]
[2]; 25° C. and 100% relative humidity
  physical stability in climate chamber: conversion of embodiment 1s into embodiment 10
[2]; 40° C. and 70% relative humidity
  physical stability in climate chamber: initial embodiment 1s had been recovered

## CC(C)(O)CNC(=O)Cc1nc2cnc3[nH]ccc3c2n1[C@H]1CC[C@H](CC#N)CC1 [embodiment 2]
[2]
  physical stability after exposure to AAC: converted to embodiment 3e

## C[C@@H](O)c1nc2cnc3[nH]ccc3c2n1[C@H]1CC[C@H](CC#N)CC1 [C]
[3]
  Papp A→B: 2.5 ×10⁻⁶ cm/s

## CC(C)(O)CNC(=O)Cc1nc2cnc3[nH]ccc3c2n1[C@H]1CC[C@H](CC#N)CC1 [Embodiment 7]
[2]
  physical stability after exposure to AAC: physically stable

## N#CC[C@H]1CC[C@H](n2c(CC(=O)NCC3CC3)nc3cnc4[nH]ccc4c32)CC1 [Ex. 3, 2-(1-((1r,4r)-4-(Cyanomethyl)cyclohexyl)-1,6-dihydroimidazo[4,5-d]pyrrolo[2,3-b]pyridin-2-yl)-N-(cyclopropylmethyl)acetamide]
[1]; Time = 2 h
  Plasma Concentration After i.c. Dosing, Mean: ^
[1]; Time = 4 h
  Plasma Concentration After i.c. Dosing, Mean: ^
[1]
  systemic exposure after i.c. dosing: low systemic exposures

## CC(C)(O)CNC(=O)Cc1nc2cnc3[nH]ccc3c2n1[C@H]1CC[C@H](CC#N)CC1 [embodiment 10]
[2]
  physical stability under ambient conditions: physically not stable

## CC(C)(O)CNC(=O)Cc1nc2cnc3[nH]ccc3c2n1[C@H]1CC[C@H](CC#N)CC1 [Embodiment 5]
[2]
  physical stability after exposure to AAC: physically unstable

## N#CC[C@H]1CC[C@H](n2c(CC(=O)Nc3cc[nH]n3)nc3cnc4[nH]ccc4c32)CC1 [Ex. 11, 2-(1-((1r,4r)-4-(Cyanomethyl)cyclohexyl)-1,6-dihydroimidazo[4,5-d]pyrrolo[2,3-b]pyridin-2-yl)-N-(1H-pyrazol-3-yl)acetamide]
[4]; Time = 2 h
  Plasma Concentration After p.o. Dosing, Mean: ^
[4]; Time = 4 h
  Plasma Concentration After p.o. Dosing, Mean: ^

## CC(C)(O)CNC(=O)Cc1nc2cnc3[nH]ccc3c2n1[C@H]1CC[C@H](CC#N)CC1 [Ex. 1, 2-(1-((1r,4r)-4-(Cyanomethyl)cyclohexyl)-1,6-dihydroimidazo[4,5-d]pyrrolo[2,3-b]pyridin-2-yl)-N-(2-hydroxy-2-methylpropyl)acetamide]
[1]; Time = 2 h
  Plasma Concentration After i.c. Dosing, Mean: ^
[1]; Time = 4 h
  Plasma Concentration After i.c. Dosing, Mean: ^
[1]
  systemic exposure after i.c. dosing: low systemic exposures

## CC(C)(O)CNC(=O)Cc1nc2cnc3[nH]ccc3c2n1[C@H]1CC[C@H](CC#N)CC1 [Embodiment 6]
[2]
  physical stability after exposure to AAC: stable solid form
